Source: patent publication US5324648A, “Substituted isocoumarins as serine protease inhibitors and anti-inflammatory agents” (Georgia Tech Research Corporation, priority 1992, dated 1994)
Read-outs that look alike come from different tables or passages of the source.

Tests used:
[1] = target: T1, porcine pancreatic elastase (PPE) (Sus scrofa, UniProt P00772); assay: Inactivation of porcine pancreatic elastase (PPE); type: biochemical
T1 construct: from tissue; host or cells: porcine pancreas (from the name)
T1 sequence (P00772 27-266): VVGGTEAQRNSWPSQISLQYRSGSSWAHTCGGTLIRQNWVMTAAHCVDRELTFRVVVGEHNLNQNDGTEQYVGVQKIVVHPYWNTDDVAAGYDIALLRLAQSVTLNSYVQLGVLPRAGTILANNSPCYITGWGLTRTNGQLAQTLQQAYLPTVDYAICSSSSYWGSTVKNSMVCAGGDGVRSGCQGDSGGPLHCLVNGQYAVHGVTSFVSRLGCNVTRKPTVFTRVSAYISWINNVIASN

[2] = target: T2, human leukocyte elastase (HLE) (Homo sapiens, UniProt P08246); assay: Inactivation of human leukocyte elastase (HLE); type: biochemical
T2 construct: from tissue; host or cells: human leukocytes (from the name)
T2 sequence (P08246 30-267): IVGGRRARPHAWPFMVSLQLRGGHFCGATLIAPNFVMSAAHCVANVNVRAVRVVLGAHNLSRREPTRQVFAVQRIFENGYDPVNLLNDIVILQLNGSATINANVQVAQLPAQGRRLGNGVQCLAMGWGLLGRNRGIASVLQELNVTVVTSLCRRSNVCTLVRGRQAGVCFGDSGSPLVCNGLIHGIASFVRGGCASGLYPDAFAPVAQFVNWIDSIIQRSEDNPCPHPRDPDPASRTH

[3] = target: chymotrypsin (Bos taurus, UniProt P00766); assay: Inactivation of chymotrypsin; type: biochemical, bovine; conditions: read-out: kobs/[I]
[4] = target: T3, cathepsin G (Homo sapiens, UniProt P08311); assay: Inactivation of cathepsin G; type: biochemical; conditions: pH 7.5; Table XII; 2.5% Me2SO, 25° C; [I] 8.7-87 μM; read-out: kobs/[I]
T3 construct: from tissue; host or cells: human leukocytes
T3 sequence (P08311 21-255): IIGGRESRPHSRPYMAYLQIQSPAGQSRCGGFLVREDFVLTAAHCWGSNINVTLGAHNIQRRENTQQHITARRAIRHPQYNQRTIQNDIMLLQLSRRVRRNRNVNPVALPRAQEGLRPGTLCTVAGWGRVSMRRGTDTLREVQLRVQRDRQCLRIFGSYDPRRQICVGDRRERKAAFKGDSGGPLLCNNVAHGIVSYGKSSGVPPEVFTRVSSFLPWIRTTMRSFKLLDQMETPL

[5] = Table XI, pH 7.5, 25° C, [I] 6.3-600 μM, per line, read-out: kobs/[I]
[6] = Table XI, pH 7.5, 25° C, [I] 1.4-6.6 μM, per line, read-out: kobs/[I]
[7] = Table XVI, pH 7.5, 25° C, [I] 0.07-710 μM, read-out: kobs/[I]
[8] = Table XVI, pH 7.5, 25° C, [I] 1.7-58 μM
[9] = pH 7.5, Table XII, 2.5% Me2SO, 25° C, [I] 0.7-1.9 μM, read-out: kobs/[I]

| Compound | kinact/KI [1, 5] | kinact/KI [2, 6] | further results |
| --- | --- | --- | --- |
| COc1oc(=O)c2cc(NC(=O)NCC(C)C)ccc2c1Cl | 3200 M⁻¹ s⁻¹ | 20000 M⁻¹ s⁻¹ | – |
| COc1oc(=O)c2cc(NC(=O)CC(CC(=O)O)c3ccccc3)ccc2c1Cl (stereo not shown) [7-(3-phenylglutaryl)amino-4-chloro-3-methoxyisocoumarin] | 3100 M⁻¹ s⁻¹ | 66000 M⁻¹ s⁻¹ | – |
| COc1oc(=O)c2cc(NC(=O)N(CCc3ccccc3)Cc3ccccc3)ccc2c1Cl [7-(N-benzyl-N-phenylethylcarbamoyl)amino-4-chloro-3-methoxyisocoumarin] | 17 M⁻¹ s⁻¹ | 12000 M⁻¹ s⁻¹ | – |
| CC(C)(C)OC(=O)N[C@H](Cc1ccccc1)C(=O)Nc1ccc2c(Cl)c(OCCCBr)oc(=O)c2c1 [7-(N-t-butyloxycarbonyl-D-phenylalanyl)amino-4-chloro-3-(3-bromopropoxy)isocoumarin] | – | – | kinact/KI [2, 7]: 1480 M⁻¹ s⁻¹; kinact/KI [3, 8]: 70 M⁻¹ s⁻¹ |
| CC(C)(C)OC(=O)N[C@@H](Cc1ccccc1)C(=O)Nc1ccc2c(Cl)c(OCCCBr)oc(=O)c2c1 [7-(N-t-butyloxycarbonyl-L-phenylalanyl)amino-4-chloro-3-(3-bromopropoxy)isocoumarin] | – | – | kinact/KI [2, 7]: 1320 M⁻¹ s⁻¹; kinact/KI [3, 8]: 490 M⁻¹ s⁻¹ |
| CCCOc1oc(=O)c2cc(NC(=O)[C@@H](NC(=O)OC(C)(C)C)C(C)C)ccc2c1Cl [7-(N-t-butyloxycarbonyl-valyl)amino-4-chloro-3-propyloxyisocoumarin] | – | – | kinact/KI [2, 9]: 64000 M⁻¹ s⁻¹; kinact/KI [4]: 17 M⁻¹ s⁻¹ |
| COc1oc(=O)c2cc(NC(=O)C(NS(=O)(=O)c3ccc(C)cc3)c3ccccc3)ccc2c1Cl (stereo not drawn) [7-(N-tosyl-α-phenylglycyl)amino-4-chloro-3-methoxyisocoumarin] | 1500 M⁻¹ s⁻¹ | 84000 M⁻¹ s⁻¹ | – |
| COC(=O)Nc1cccc(C(=O)Nc2ccc3c(Cl)c(OC)oc(=O)c3c2)c1 [7-(m-methoxycarbonylaminobenzoyl)amino-4-chloro-3-methoxyisocoumarin] | 2500 M⁻¹ s⁻¹ | 100000 M⁻¹ s⁻¹ | – |
| CCCOc1oc(=O)c2cc(NC(=O)c3cccc([N+](=O)[O-])c3)ccc2c1Cl [7-(m-nitrobenzoyl)amino-4-chloro-3-propyloxyisocoumarin] | – | – | kinact/KI [2, 9]: > 210000 M⁻¹ s⁻¹; kinact/KI [4]: 4 M⁻¹ s⁻¹ |
| COC(=O)c1ccccc1C(=O)Nc1ccc2c(Cl)c(OC)oc(=O)c2c1 [7-(o-methoxyphthalyl)amino-4-chloro-3-methoxyisocoumarin] | 7100 M⁻¹ s⁻¹ | – | – |
| COc1oc(=O)c2cc(NC(=O)c3ccccc3C(=O)O)ccc2c1Cl [7-(o-phthalyl)amino-4-chloro-3-methoxyisocoumarin] | 2700 M⁻¹ s⁻¹ | 52000 M⁻¹ s⁻¹ | – |
| CCNC(=O)Nc1ccc2c(Cl)c(OC)oc(=O)c2c1 [7-EtNHCONH-4-chloro-3-methoxyisocoumarin, 7-ethylcarbamoylamino-4-chloro-3-methoxyisocoumarin] | 1700 M⁻¹ s⁻¹ | – | – |
| CCOC(=O)Nc1ccc2c(Cl)c(OC)oc(=O)c2c1 [7-EtOCONH-4-chloro-3-methoxyisocoumarin, 7-ethoxycarbonylamino-4-chloro-3-methoxyisocoumarin] | 2000 M⁻¹ s⁻¹ | 47000 M⁻¹ s⁻¹ | – |
| COc1oc(=O)c2cc(NC(=O)OCC3c4ccccc4-c4ccccc43)ccc2c1Cl [7-Fmoc-NH-4-chloro-3-methoxyisocoumarin, 7-(9-fluorenylmethoxycarbonyl)amino-4-chloro-3-methoxyisocoumarin] | 20 M⁻¹ s⁻¹ | 10000 M⁻¹ s⁻¹ | – |
| COc1oc(=O)c2cc(NC(N)=O)ccc2c1Cl [7-H2 NCONH-4-chloro-3-methoxyisocoumarin, 7-carbamoylamino-4-chloro-3-methoxyisocoumarin] | 2100 M⁻¹ s⁻¹ | – | – |
| COc1oc(=O)c2cc(N=C=O)ccc2c1Cl [7-NCO-4-chloro-3-methoxyisocoumarin, 7-isocyanato-4-chloro-3-methoxyisocoumarin] | – | – | kinact/KI ([1]; pH 7.5, read-out: kobs/[I]): 650 M⁻¹ s⁻¹; kinact/KI ([2]; pH 7.5, read-out: kobs/[I]): 9200 M⁻¹ s⁻¹ |
| COc1oc(=O)c2cc(NC(=O)Nc3ccccc3)ccc2c1Cl [7-PhNHCONH-4-chloro-3-methoxyisocoumarin, 7-phenylcarbamoylamino-4-chloro-3-methoxyisocoumarin] | 7300 M⁻¹ s⁻¹ | 49000 M⁻¹ s⁻¹ | – |

| Compound | kinact/KI [1, 5] | kinact/KI [2, 6] | further results |
| --- | --- | --- | --- |
| COc1oc(=O)c2cc(NC(=O)Oc3ccccc3)ccc2c1Cl [7-PhOCONH-4-chloro-3-methoxyisocoumarin, 7-phenoxycarbonylamino-4-chloro-3-methoxyisocoumarin] | – | – | kinact/KI ([1]; pH 7.5, read-out: kobs/[I]): 850 M⁻¹ s⁻¹; kinact/KI ([2]; pH 7.5, read-out: kobs/[I]): 13000 M⁻¹ s⁻¹ |
| CCCOc1oc(=O)c2cc(NC(=O)CSC)ccc2c1Cl [7-[(2-thiomethyl)acetyl]amino-4-chloro-3-propyloxyisocoumarin] | – | – | kinact/KI [2, 9]: > 152000 M⁻¹ s⁻¹; kinact/KI [4]: 28 M⁻¹ s⁻¹ |
| COc1oc(=O)c2cc(NC(=O)OCc3ccccc3)ccc2c1Cl [7-benzyloxycarbonylamino-4-chloro-3-methoxyisocoumarin] | 260 M⁻¹ s⁻¹ | 71000 M⁻¹ s⁻¹ | – |
| CCCOc1oc(=O)c2cc(NC(=S)NCc3ccccc3)ccc2c1Cl [7-benzylthiocarbamoylamino-4-chloro-3-propyloxyisocoumarin] | – | – | kinact/KI [2, 9]: > 131000 M⁻¹ s⁻¹ |
| O=C(CCc1ccccc1)Nc1ccc2c(Cl)c(OCCCBr)oc(=O)c2c1 [7-dihydrocinnamoylamino-4-chloro-3-(3-bromopropoxy)isocoumarin] | – | – | kinact/KI ([2]; pH 7.5, Table XVI, biphasic plot, read-out: kobs/[I] (biphasic, first value)): 35600 M⁻¹ s⁻¹; kinact/KI ([2]; pH 7.5, Table XVI, biphasic plot, read-out: kobs/[I] (biphasic, second value)): 9870 M⁻¹ s⁻¹; kinact/KI [3, 8]: 600 M⁻¹ s⁻¹ |
| CCOC(=O)Nc1ccc2c(Cl)c(OCC)oc(=O)c2c1 [7-ethoxycarbonylamino-4-chloro-3-ethoxyisocoumarin] | 3500 M⁻¹ s⁻¹ | – | – |
| CCNC(=S)Nc1ccc2c(Cl)c(OCC)oc(=O)c2c1 [7-ethylthiocarbamoylamino-4-chloro-3-ethoxyisocoumarin] | 4200 M⁻¹ s⁻¹ | – | – |
| COc1oc(=O)c2cc(NC(=O)C(F)(F)C(F)(F)C(F)(F)F)ccc2c1Cl [7-heptafluorobutyroylamino-4-chloro-3-methoxyisocoumarin] | – | – | kinact/KI ([1]; pH 7.5, read-out: kobs/[I]): 1100 M⁻¹ s⁻¹; kinact/KI ([2]; pH 7.5, read-out: kobs/[I]): 47000 M⁻¹ s⁻¹ |
| COc1oc(=O)c2cc(NC(=O)NC(C)C)ccc2c1Cl [7-isopropylcarbamoylamino-4-chloro-3-methoxyisocoumarin] | 2300 M⁻¹ s⁻¹ | 9000 M⁻¹ s⁻¹ | – |
| COC(=O)CCCC(=O)Nc1ccc2c(Cl)c(OC)oc(=O)c2c1 [7-methoxyglutarylamino-4-chloro-3-methoxyisocoumarin] | 2800 M⁻¹ s⁻¹ | 54000 M⁻¹ s⁻¹ | – |
| COC(=O)CCC(=O)Nc1ccc2c(Cl)c(OC)oc(=O)c2c1 [7-methoxysuccinylamino-4-chloro-3-methoxyisocoumarin] | 2200 M⁻¹ s⁻¹ | 43000 M⁻¹ s⁻¹ | – |
| CNC(=O)Nc1ccc2c(Cl)c(OC)oc(=O)c2c1 [7-methylcarbamoylamino-4-chloro-3-methoxyisocoumarin] | 1300 M⁻¹ s⁻¹ | 9460 M⁻¹ s⁻¹ | – |
| O=C(Nc1ccccc1)Nc1ccc2c(Cl)c(OCCBr)oc(=O)c2c1 [7-phenylcarbamoylamino-4-chloro-3-(2-bromoethoxy)isocoumarin] | – | – | kinact/KI ([1]; Table XVI, pH 7.5, 25° C, [I] 0.04-2.0 mM, read-out: kobs/[I]): 36 M⁻¹ s⁻¹; kinact/KI ([2]; pH 7.5, Table XVI, second order, equimolar inhibitor and enzyme, read-out: kobs/[I]): 1.2e+06 M⁻¹ s⁻¹; kinact/KI [3, 8]: 12 M⁻¹ s⁻¹ |
| CCCOc1oc(=O)c2cc(NC(=O)Nc3ccccc3)ccc2c1Cl [7-phenylcarbamoylamino-4-chloro-3-propyloxyisocoumarin] | – | – | kinact/KI ([1]; pH 7.5, Table XII, 2.5% Me2SO, 25° C, [I] 34-56 μM, read-out: kobs/[I]): 520 M⁻¹ s⁻¹; kinact/KI [2, 9]: 143000 M⁻¹ s⁻¹; kinact/KI ([3]; pH 7.5, Table XII, 2.5% Me2SO, 25° C, [I] 3.4-70 μM): 6100 M⁻¹ s⁻¹ |
| CCOc1oc(=O)c2cc(NC(=S)Nc3ccccc3)ccc2c1Cl [7-phenylthiocarbamoylamino-4-chloro-3-ethoxyisocoumarin] | 12000 M⁻¹ s⁻¹ | – | – |
| CCCOc1oc(=O)c2cc(NC(=S)Nc3ccccc3)ccc2c1Cl [7-phenylthiocarbamoylamino-4-chloro-3-propyloxyisocoumarin] | – | – | kinact/KI [2, 9]: > 166000 M⁻¹ s⁻¹ |
